Data: patent publication EP0098138A2, “Microbial cells and the use thereof to produce oxidation products” (EXXON RESEARCH AND ENGINEERING COMPANY, priority 1982, dated 1984)
Like-named read-outs stand apart in the source and are kept apart here.

Legend:
[1] = system: secondary alcohol dehydrogenase; experiment: Oxidation of secondary alcohols by soluble extracts (NAD+ reduction at 340 nm); assay type: biochemical, Arthrobacter sp. (CRL 60 P1) NRRL B-11,315; conditions: substrate of soluble extracts, pH 8.0, 100% = 22 nmoles of NAD+ reduced per minute per mg of protein
Procedure: (§1) Cell suspensions of the microorganism strains identified in Table XII grown on the indicated growth substrate were disrupted with a wave energy ultrasonic oscillator Model W201 (Wave Energy System, Inc., Newton, Pa) and centrifuged at 30,000 x g for 30 min. The supernatant solution (cell extracts) was used for the oxidation of secondary alcohols. Secondary alcohol dehydrogenase activity was measured spectrophotometrically at 340 nm with oxidized nicotinamide adenine dinucleotide (NAD^+) as an electron acceptor.
(§2) The initial reaction mixture, in a total volume of 3.0 ml, consisted of 50mM phosphate buffer of pH 8.0, 5 µ moles of NAD^+, and cell extract.

alkane monooxygenase = experiment: Epoxidation of alkenes and styrene by soluble extracts; assay type: biochemical, Brevibacterium sp. (CRL 56 P6Y) NRRL B-11,319
Procedure: The microorganism Brevibacterium sp. […] The fermentor was inoculated with 2 liters of a culture grown in flasks.
The cells thus grown were washed twice with 25 mM potassium phosphate buffer pH 7.0 and suspended in the same buffer solution containing 5mM MgCl2 and deoxyribonuclease (0.05 mg/ml). […] Disintegrated cell suspensions were centrifuged at 15,000 x g for 15 min. to remove unbroken cells. The supernatant solution was then centrifuged at 40,000 x g for 60 minutes and the supernatant solution therefrom was again centrifuged at 80,000 x g for 60 minutes, yielding the soluble fraction.
Several 3-ml vials at 4°C were charged with 0.2 ml of a reaction mixture consisting of 10 µmoles potassium phosphate buffer pH 7.0, 4 µ cmoles NADH2, and the soluble enzyme fraction obtained above. The gaseous phase of the vials was evacuated by vacuum and replaced with a gas mixture of gaseous oxidation substrate and oxygen (1:1 v/v); in the case of a liquid oxidation substrate, 2 µl of substrate was added. The vials were incubated at 35 °C on a reciprocating water bath shaker at 50 oscillations per minute.
The rate of epoxidation of alkenes and styrene was measured by injecting 1-2 µ1 samples of the reaction mixture into a gas chromatograph immediately after addition of substrate (zero time) and after 5 and 10 min. of incubation. Specific activities were expressed as […] of product formed per 10 min. per mg of protein. With each substrate, control experiments were conducted in the absence of NADH2, in the absence of oxygen, and using boiled extracts.

[2] = system: Propylene-Oxidizing Activity of Arthrobacter sp. (CRL 60 P1) NRRL B-11,315; experiment: Effect of inhibitors on propylene-oxidizing activity (propylene oxide formation) of propane-grown cell suspensions; assay type: cell-based; conditions: for inhibition at 1000 µM: Arthrobacter, NRRLB11, 0.25 h
Procedure: (§3) The pH of the nutrient medium was adjusted to 7.0 by the addition of acid or base and 50 ml samples of the nutrient medium were charged into a plurality of 300 ml shake flasks. The shake flasks were inoculated with an innoculating loop of cells from an agar plate containing homogeneous colonies of the microorganisms on the plate (the purity of the isolates was confirmed by microscopic examination). […] In the case of growth on liquid substrates (at 0.3%, v/v), the gaseous phase of the flasks was air. The inoculated flasks were sealed air tight and were incubated on a rotary shaker at 250 rpm and at 30°C for two days until turbidity in the medium had developed.
(§4) The cells were harvested by centrifugation at 12,000 x g. at 4 °C for 15 minutes. The cell pellet was washed twice with a 50 mM phosphate buffer at a pH of 7.0. The washed cells were then suspended in a 50mM phosphate buffer at pH 7.0.
(§5) The gaseous phase of the vials was removed with vacuum and then was replaced with a gas mixture of the oxidative substrate (e.g. ethane) and oxygen at a 1:1 v/v ratio. If a liquid substrate was employed, 5-10 µl of substrate was placed in the vials. […] Samples (3 µl) were withdrawn periodically with a microsyringe and the products were analyzed by gas chromatography (ionization flame detector column) at a column temperature of 100°C to 180 °C and at a carrier gas flow rate of 30 or 35 ml/ min of helium. The various products were identified by retention time comparisons and co-chromatography with authentic standards. […] Protein in the cell suspensions was determined by the method described by […].
(§6) All inhibitors were added at 1mM concentration and the cell suspensions were incubated for 15 min. at 4 °C.

[3] = system: Propane-Oxidizing Activity of Arthrobacter sp. (CRL 60 P1) NRRL B-11,315; experiment: Effect of inhibitors on propane-oxidizing activity (acetone production) of propane-grown cell suspensions; assay type: cell-based; conditions: for inhibition at 1000 µM: Arthrobacter, NRRLB11, 0.25 h
Procedure: as §3, §4, §5, §6

[4] = system: secondary alcohol dehydrogenase; experiment: Effect of inhibitors on oxidation of 2-butanol by cell extracts (NAD+ reduction at 340 nm); assay type: biochemical, Arthrobacter sp. (CRL 60 P1) NRRL B-11,315
Procedure: as §1, §2
All inhibitors were tested at lmM concentration and incubated with the soluble extracts in the reaction mixture for 15 min at 0°C. Otherwise the procedure described above was followed.

[5] = system: Cell-Free Particulate Fraction of Arthrobacter sp. (CRL 60 P1) NRRL B-11,315; experiment: Oxidation of alkenes and alkanes by cell-free particulate P(40) fraction; assay type: biochemical
Procedure: (§9) Cells were harvested during exponential growth by centrifugation at 12,000 x g for 15 min. at 4°C. Cells were washed twice with a 25 mM potassium phosphate buffer of pH 7.0 containing 5mM MgCl2 and were then suspended in the same buffer. The resulting cell suspensions at 4°C were disintegrated by a single passage through a French pressure cell (45 mPa) and centrifuged at 5,000 x g for 15 min to remove unbroken bacteria. […] The particulate fraction [P(40)] was suspended in the same buffer as described above and homogenized at 4°C.
(§10) A 1.0 ml sample containing the particulate or soluble fraction, 10 µ moles NADH and 150 mM potassium phosphate buffer at pH 7.0 containing 3 µ moles MgCl2 was put into separate 10 ml vials at 4°C which were sealed with a rubber cap. The gaseous phase of the vials was removed by vacuum and replaced with a gas mixture of the indicated alkane or alkene as substrate and oxygen at a 1:1 v/v ratio. The vials were then incubated at 30°C on a rotary shaker at 200 rpm for 10 minutes.
Reactions were linear during the first 15 minutes of incubation as measured by detection of product by gas chromatography.

[6] = system: Cell-Free Particulate P(40) Fraction of Arthrobacter sp. (CRL 60 P1) NRRL B-11,315
Procedure: as §9, §10

[7] = system: Arthrobacter sp. (CRL 60 Pl) NRRL B-11,315; experiment: Effect of propane on oxidation of propylene to propylene oxide by cell suspensions; assay type: cell-based; conditions: propane added to cell suspensions epoxidising propylene
Text: (§7) The following summarizes tests conducted on the optimal conditions for the production of propylene oxide from propylene using cell suspensions of propane-grown Arthrobacter sp. (CRL 60 Pl) NRRL B-11,315 as the representative microorganism strain. It will be understood that these are optimal conditions found for one particular strain and one particular substrate, and the invention is not meant to be bound by them. Conversions of propylene can still be obtained using Arthrobacter sp. (CRL 60 Pl) NRRL B-11,315 by deviating from the optimum indicated below, but with lower yields and conversions.
The effect of propane on the oxidation of propylene to propylene oxide was studied to determine if a single enzyme system was responsible for the oxidation of both propane and propylene.

[8] = system: Arthrobacter sp. (CRL 60 Pl) NRRL B-11,335
Procedure: as §5
Arthrobacter sp. […] Ethanol was converted to acetaldehyde (acetyl Co ~A in vivo) by primary alcohol dehydrogenase, yielding 1 mole of NADH, with subsequent oxidation of the intermediate acetyl Co ~A to carbon dioxide, yielding 3 additional moles of NADH.

[9] = assay type: physicochemical
Procedure: (§8) To determine if the slower reaction rate after 40-60 min of incubation was due to enzymatic or non-enzymatic oxidation of propylene oxide or due to product inhibition, 5 µ moles of propylene oxide was added to viable and to heat-killed cell suspensions in the presence and absence of propylene, and incubated at 30°C.
[…]. The rate of epoxidation of propylene was found not to vary markedly in the pH range from 5 to 9, with the optimum pH about 7. A 5 A mole sample of propylene oxide was added to heat-killed cell suspensions at pH 5, 7 and 9 to test for non-enzymatic degradation of propylene oxide at these pH values.

[10] = system: Arthrobacter sp. (CRL 60 Pl) NRRL B-11,315; experiment: Further oxidation of added propylene oxide by viable cell suspensions; assay type: cell-based; conditions: 5 µ moles added to viable cell suspension, 30°C
Text: as §7, §8

[11] = system: Cell-Free Particulate P(40) Fraction of Arthrobacter sp. (CRL 60 P1) NRRL B-11,315; experiment: Effect of inhibitors on oxidation of propane and butane by cell-free particulate P(40) fraction
Procedure: as §9, §10

[12] = substrate epoxidised by soluble fraction, NADH2 and oxygen, pH 7.0, 35°C
[13] = inhibitor 1mM, cell suspensions incubated 15 min at 4°C, propylene oxide formation by gas chromatography, uninhibited rate 0.6 μmoles/15 min/mg of protein
[14] = inhibitor 1mM, cell suspensions incubated 15 min at 4°C, acetone production by gas chromatography, uninhibited rate 1.5 μ moles/hr/mg of protein
[15] = inhibitor 1mM, incubated with soluble extracts 15 min at 0°C, substrate 2-butanol, uninhibited activity 25 nmoles of NAD+ reduced per min per mg of protein
[16] = alkene substrate, epoxide product, P(40) fraction, NADH and oxygen, pH 7.0, 30°C

## 2-Butanol
[1]
  Rate of Oxidation (%): 100%

## C=CC=C [1,3-Butadiene]
Alkane monooxygenase; [12]
  Rate of Product Formation: 0.044 μ mole/10 min./mg protein

## c1cnc2c(c1)ccc1cccnc12 [1,10-Phenanthroline]
[2]; [13]
  inhibition at 1000 µM: 90%
[3]; [14]
  inhibition at 1000 µM: 80%
[4]; [15]
  Inhibition (%): 80%

## C=CCC [1-Butene]
[5]; pH 7
  Rate of Product Formation: 0.216 μ moles/hr/mg protein
Alkane monooxygenase; pH 7
  Rate of Product Formation: 0.030 μ mole/10 min./mg protein

## C=CCCCCC [1-Heptene]
Alkane monooxygenase; pH 7
  Rate of Product Formation: 0.008 μ mole/10 min./mg protein

## C=CCCC [1-Pentene]
[5]; [16]
  Rate of Product Formation: 0.195 μ moles/hr/mg protein
Alkane monooxygenase; [12]
  Rate of Product Formation: 0.025 μ mole/10 min./mg protein

## CCCCCC(C)O (stereo not shown) [2-Heptanol]
[1]
  Rate of Oxidation (%): 4%

## CCCCC(C)O (stereo not shown) [2-Hexanol]
[1]
  Rate of Oxidation (%): 10%

## CCCC(C)O (stereo not shown) [2-Pentanol]
[1]
  Rate of Oxidation (%): 12%

## C=C [Ethylene]
[5]; pH 7
  Rate of Product Formation: 0.153 μ moles/hr/mg protein
Alkane monooxygenase; pH 7
  Rate of Product Formation: 0.040 μ mole/10 min./mg protein

## NO [Hydroxylamine]
[2]; [13]
  Inhibition (%) Propylene-Oxidizing Activity: 83%
[3]; [14]
  Inhibition (%) Propane-Oxidizing Activity: 70%

## c1c[nH]cn1 [Imidazole]
[6]
  inhibition: 80%
[3]; [14]
  inhibition at 1000 µM: 80%

## C=C(C)C [Isobutene]
Alkane monooxygenase; [12]
  Rate of Product Formation: 0.046 μ mole/10 min./mg protein

## NNC(=O)c1ccncc1 [Isoniazide]
[2]; [13]
  inhibition at 1000 µM: 35%
[3]; [14]
  inhibition at 1000 µM: 30%

## CC(C)O [Isopropanol]
[1]
  Rate of Oxidation (%): 65%

## CCN1C(=O)C=CC1=O [N-Ethylmaleimide]
[2]; [13]
  inhibition at 1000 µM: 81%
[3]; [14]
  inhibition at 1000 µM: 70%
[4]; [15]
  Inhibition (%): 30%

## CCC [Propane]
[5]; alkane substrate, primary alcohol product (n-propanol, n-butanol), P(40) fraction, NADH and oxygen, pH 7.0, 30°C
  Rate of Product Formation: 0.600 μ moles/hr/mg protein
[5]; alkane substrate, secondary alcohol product (2-propanol, 2-butanol), P(40) fraction, NADH and oxygen, pH 7.0, 30°C
  Rate of Product Formation: 0.300 μ moles/hr/mg protein
[7]
  effect of propane on the oxidation of propylene to propylene oxide: reducing the amount of propylene oxide formed

## C=CC [Propylene]
[5]; [16]
  Rate of Product Formation: 0.360 μ moles/hr/mg protein
Alkane monooxygenase; [12]
  Rate of Product Formation: 0.052 μ mole/10 min./mg protein

## C=Cc1ccccc1 [Styrene]
Alkane monooxygenase; [12]
  Rate of Product Formation: 0.005 μ mole/10 min./mg protein

## CC(=N)S [Thioacetamide]
[2]; [13]
  inhibition at 1000 µM: 68%
[3]; [14]
  inhibition at 1000 µM: 60%

## NNC(N)=S [Thiosemicarbazide]
[2]; [13]
  inhibition at 1000 µM: 12%
[3]; [14]
  inhibition at 1000 µM: 10%

## NC(N)=S [Thiourea]
[2]; [13]
  inhibition at 1000 µM: 12%
[3]; [14]
  inhibition at 1000 µM: 10%

## C/C=C\C [cis-But-2-ene]
Alkane monooxygenase; pH 7
  Rate of Product Formation: 0.018 μ mole/10 min./mg protein

## CCO [ethanol]
[8]; 5 μmole ethanol, 1 hr., control 2.5
  Epoxidation Rate (rate of propylene oxide formation): 2.9 μ mole/0.5 ml.
[8]; 5 μmole ethanol, 2 hr., control 3.8
  Epoxidation Rate (rate of propylene oxide formation): 5.6 μ mole/0.5 ml.
[8]; 5 μmole ethanol, 3 hr., control 3.9
  Epoxidation Rate (rate of propylene oxide formation): 6.5 μ mole/0.5 ml.
[8]; 25 μmole ethanol, 1 hr., control 2.5
  Epoxidation Rate (rate of propylene oxide formation): 2.4 μ mole/0.5 ml.
[8]; 25 μmole ethanol, 2 hr., control 3.8
  Epoxidation Rate (rate of propylene oxide formation): 5.2 μ mole/0.5 ml.
[8]; 25 μmole ethanol, 3 hr., control 3.9
  Epoxidation Rate (rate of propylene oxide formation): 6.5 μ mole/0.5 ml.

## O=C(O)c1cc[c]([Hg+])cc1.[OH-] [p-Hydroxymercuribenzoate]
[2]; [13]
  Inhibition (%) Propylene-Oxidizing Activity: 35%
[3]; [14]
  Inhibition (%) Propane-Oxidizing Activity: 35%
[4]
  Inhibition (%): 95%

## CC1CO1 (stereo not shown) [propylene oxide]
[9]; 5 µ moles added to heat-killed cell suspensions, 30°C
  amount of propylene oxide: remained constant
[9]; heat-killed cell suspensions at pH 5, 7 and 9, one hour of incubation
  non-enzymatic degradation of propylene oxide: did not decrease
[10]
  disappearance in propylene oxide: Some disappearance

## C/C=C/C [trans-But-2-ene]
Alkane monooxygenase; pH 7
  Rate of Product Formation: 0.022 μ mole/10 min./mg protein

## α,α-Bipyridyl
[2]
  Inhibition (%) Propylene-Oxidizing Activity: 32%
[3]
  Inhibition (%) Propane-Oxidizing Activity: 30%
[11]
  Inhibition (%): 32%
